Data published in patent publication US10766869B2, “Triazoles for the treatment of demyelinating dieases” (Vertex Pharmaceuticals Incorporated, priority 2015, dated 2020).
Where two headings read alike, the source gives them in different places.

Test system: primary rat mixed cortical cells
Experiment: In vitro myelination assay (MBP positive myelin strands, fold myelin pixels above background)
Format: cell-based
Conditions: Rattus norvegicus; for fold induction at 1 µM: 1.0 μM compound; for fold induction at 10 µM: 10.0 μM compound
Method in brief: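 Myelination read as total MBP-immunopositive strand pixels per well, imaged at 10× after fixation on day 14 and expressed relative to untreated wells, at 1.0 and 10.0 μM. Cells: dissociated postnatal day 1 rat cortex, cultured two weeks with compound, re-dosed at days 6 and 10.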

[1] = read-out: Fold myelin pixels above background relative to baseline of no added compound
[2] = relative to baseline of no added compound, read-out: Fold myelin pixels above background, 1.0 μM
[3] = relative to baseline of no added compound, read-out: Fold myelin pixels above background, 10.0 μM
[4] = relative to baseline of no added compound, read-out: Fold myelin pixels above background

Cc1cc(Nc2ncn(-c3cc(F)cc(F)c3)n2)cc(N2CCN(CC3CCCO3)CC2)c1 (stereo not drawn) [Compound 914, 1-(3,5-difluorophenyl)-N-[3-methyl-5-[4-(tetrahydrofuran-2-ylmethyl)piperazin-1-yl]phenyl]-1,2,4-triazol-3-amine]
fold induction at 1 µM [1]: 10 to 100
fold induction at 10 µM [1]: ≤ 1

Cc1cc(Nc2ncn(-c3cc(F)cc(F)c3)n2)cc(N2CCC(N3CCOCC3)C2)c1 (stereo not drawn) [Compound 284, 1-(3,5-difluorophenyl)-N-[3-methyl-5-(3-morpholinopyrrolidin-1-yl)phenyl]-1,2,4-triazol-3-amine]
fold induction at 1 µM [2]: 1 to 10
fold induction at 10 µM [3]: 1 to 10

COC1CC(Nc2cc(C)cc(Nc3ncn(-c4cc(F)cc(F)c4)n3)c2)C1 (stereo not drawn) [Compound 520, N3-[1-(3,5-difluorophenyl)-1,2,4-triazol-3-yl]-N1-(3-methoxycyclobutyl)-5-methyl-benzene-1,3-diamine]
fold induction at 1 µM [4]: 100 to 1000
fold induction at 10 µM [4]: ≤ 1

Cc1cc(Nc2ncn(-c3cc(F)cc(F)c3)n2)cc(N2CCN(C)C3(COC3)C2)c1 [Compound 349, 1-(3,5-difluorophenyl)-N-[3-methyl-5-(9-methyl-2-oxa-6,9-diazaspiro[3.5]nonan-6-yl)phenyl]-1,2,4-triazol-3-amine]
fold induction at 1 µM [2]: 10 to 100
fold induction at 10 µM [3]: 100 to 1000

Cc1cc(Nc2ncn(-c3cc(F)cc(F)c3)n2)cc(N2CC(C3CCOC3)C2)c1 (stereo not drawn) [Compound 890, 1-(3,5-difluorophenyl)-N-[3-methyl-5-(3-tetrahydrofuran-3-ylazetidin-1-yl)phenyl]-1,2,4-triazol-3-amine]
fold induction at 1 µM [1]: 1 to 10
fold induction at 10 µM [1]: 10 to 100

Fc1cc(Nc2ncn(-c3cnccn3)n2)cc(N2CCN(C3COC3)CC2)c1 [Compound 598, N-[3-fluoro-5-[4-(oxetan-3-yl)piperazin-1-yl]phenyl]-1-pyrazin-2-yl-1,2,4-triazol-3-amine]
fold induction at 1 µM [4]: 1 to 10
fold induction at 10 µM [4]: 1 to 10

Cc1cc(Nc2ncn(-c3ccccc3)n2)cc(OC2CCN(C3COC3)CC2)c1 [Compound 410, N-[3-methyl-5-[[1-(oxetan-3-yl)-4-piperidyl]oxy]phenyl]-1-phenyl-1,2,4-triazol-3-amine]
fold induction at 1 µM [4]: 10 to 100
fold induction at 10 µM [4]: ≤ 1

Cc1cc(Nc2ncn(-c3cc(F)cc(F)c3)n2)cc(N2CCN(C)C(C)(C)C2)c1 [Compound 771, 1-(3,5-difluorophenyl)-N-[3-methyl-5-(3,3,4-trimethylpiperazin-1-yl)phenyl]-1,2,4-triazol-3-amine]
fold induction at 1 µM [4]: 10 to 100
fold induction at 10 µM [4]: ≤ 1

CN1CCN(c2cc(F)cc(Nc3ncn(-c4ccccc4)n3)c2)CC1 [Compound 213, N-[3-fluoro-5-(4-methylpiperazin-1-yl)phenyl]-1-phenyl-1,2,4-triazol-3-amine]
fold induction at 1 µM [2]: 100 to 1000
fold induction at 10 µM [3]: ≤ 1

Cc1cc(Nc2ncn(-c3cc(F)cc(F)c3)n2)cc(N2CC(n3cccn3)C2)c1 [Compound 379, 1-(3,5-difluorophenyl)-N-[3-methyl-5-(3-pyrazol-1-ylazetidin-1-yl)phenyl]-1,2,4-triazol-3-amine]
fold induction at 1 µM [2]: 10 to 100
fold induction at 10 µM [3]: 100 to 1000

Cc1cc(Nc2ncn(-c3ccccn3)n2)cc(C2COC2)c1 [Compound 404, N-[3-methyl-5-(oxetan-3-yl)phenyl]-1-(2-pyridyl)-1,2,4-triazol-3-amine]
fold induction at 1 µM [4]: 100 to 1000
fold induction at 10 µM [4]: 100 to 1000

CCN(C)Cc1cc(F)cc(-n2cnc(Nc3cc(C)cc(N4CCN(C)CC4)c3)n2)c1 [Compound 390, 1-[3-[[ethyl(methyl)amino]methyl]-5-fluoro-phenyl]-N-[3-methyl-5-(4-methylpiperazin-1-yl)phenyl]-1,2,4-triazol-3-amine]
fold induction at 1 µM [4]: 10 to 100
fold induction at 10 µM [4]: 10 to 100

Cc1cc(Nc2ncn(-c3cc(F)cc(F)c3)n2)nc(N2CCN([C@H]3CCOC3)CC2)c1 (single isomer, unassigned) [Compound 740]
fold induction at 1 µM [4]: 10 to 100
fold induction at 10 µM [4]: 10 to 100

CN1CCN(c2cc(F)cc(Nc3ncn(-c4cccc(F)c4)n3)c2)CC1 [Compound 203, N-[3-fluoro-5-(4-methylpiperazin-1-yl)phenyl]-1-(3-fluorophenyl)-1,2,4-triazol-3-amine]
fold induction at 1 µM [2]: 100 to 1000
fold induction at 10 µM [3]: ≤ 1

Cc1cc(Nc2ncn(-c3ccccc3Cl)n2)cc(N2CCN(C)CC2)c1 [Compound 428, 1-(2-chlorophenyl)-N-[3-methyl-5-(4-methylpiperazin-1-yl)phenyl]-1,2,4-triazol-3-amine]
fold induction at 1 µM [4]: 1 to 10
fold induction at 10 µM [4]: 10 to 100

Cc1cc(NCC2(C(=O)N(C)C)CCCC2)cc(Nc2ncn(-c3cc(F)cc(F)c3)n2)c1 [Compound 938, 1-[[3-[[1-(3,5-difluorophenyl)-1,2,4-triazol-3-yl]amino]-5-methyl-anilino]methyl]-N,N-dimethyl-cyclopentanecarboxamide]
fold induction at 1 µM [1]: 1 to 10
fold induction at 10 µM [1]: ≤ 1

Fc1cc(Nc2ncn(-c3cccc(C(F)(F)F)c3)n2)cc(N2CCOCC2)c1 [Compound 181, N-(3-fluoro-5-morpholino-phenyl)-1-[3-(trifluoromethyl)phenyl]-1,2,4-triazol-3-amine]
fold induction at 1 µM [2]: ≤ 1
fold induction at 10 µM [3]: 100 to 1000

COCc1cc(Nc2ncn(-c3cccc(C(F)(F)F)c3)n2)nc(N2CCN(C3COC3)CC2)c1 [Compound 625, 4-(methoxymethyl)-6-[4-(oxetan-3-yl)piperazin-1-yl]-N-[1-[3-(trifluoromethyl)phenyl]-1,2,4-triazol-3-yl]pyridin-2-amine]
fold induction at 1 µM [4]: 1 to 10
fold induction at 10 µM [4]: 10 to 100

Cc1cc(Nc2ncn(-c3cc(F)cc(F)c3)n2)cc(N2CCC[C@H]2CN2CCOCC2)c1 (single isomer, unassigned) [Compound 919]
fold induction at 1 µM [1]: 10 to 100
fold induction at 10 µM [1]: ≤ 1

Fc1cc(Nc2ncn(-c3cc(F)cc(F)c3)n2)cc(C2CCN(C3COC3)C2)c1 (stereo not drawn) [Compound 268, 1-(3,5-difluorophenyl)-N-[3-fluoro-5-[1-(oxetan-3-yl)pyrrolidin-3-yl]phenyl]-1,2,4-triazol-3-amine]
fold induction at 1 µM [2]: 100 to 1000
fold induction at 10 µM [3]: 1000 to 10000

Cc1cc(Nc2ncn(-c3cccc(F)c3)n2)cc(N2CCN(C3(C)COC3)CC2)c1 [Compound 375, 1-(3-fluorophenyl)-N-[3-methyl-5-[4-(3-methyloxetan-3-yl)piperazin-1-yl]phenyl]-1,2,4-triazol-3-amine]
fold induction at 1 µM [2]: 1000 to 10000
fold induction at 10 µM [3]: 10 to 100

Fc1cc(Nc2ncn(-c3cccc(C(F)(F)F)c3)n2)cc(N2CCCC2)c1 [Compound 241, N-(3-fluoro-5-pyrrolidin-1-yl-phenyl)-1-[3-(trifluoromethyl)phenyl]-1,2,4-triazol-3-amine]
fold induction at 1 µM [2]: ≤ 1
fold induction at 10 µM [3]: ≤ 1

Cc1cc(Nc2ncn(-c3ccccc3)n2)cc(N2C[C@@H]3C[C@H]2CN3C2COC2)c1 [Compound 219, N-[3-methyl-5-[(1S,4S)-2-(oxetan-3-yl)-2,5-diazabicyclo[2.2.1]heptan-5-yl]phenyl]-1-phenyl-1,2,4-triazol-3-amine]
fold induction at 1 µM [2]: 100 to 1000
fold induction at 10 µM [3]: 1 to 10

COCCN(C)c1cc(F)cc(-n2cnc(Nc3cc(C)cc(N4CCN(C5COC5)CC4)c3)n2)c1 [Compound 373, 1-[3-fluoro-5-[2-methoxyethyl(methyl)amino]phenyl]-N-[3-methyl-5-[4-(oxetan-3-yl)piperazin-1-yl]phenyl]-1,2,4-triazol-3-amine]
fold induction at 1 µM [2]: 100 to 1000
fold induction at 10 µM [3]: 100 to 1000

CCc1cc(Nc2ncn(-c3cc(C)ccc3F)n2)cc(N2CCN(C3COC3)CC2)c1 [Compound 338, N-[3-ethyl-5-[4-(oxetan-3-yl)piperazin-1-yl]phenyl]-1-(2-fluoro-5-methyl-phenyl)-1,2,4-triazol-3-amine]
fold induction at 1 µM [2]: 1 to 10
fold induction at 10 µM [3]: 10 to 100

CCN1CCCC(Nc2cc(C)cc(Nc3ncn(-c4cc(F)cc(F)c4)n3)c2)C1 (stereo not drawn) [Compound 897, N3-[1-(3,5-difluorophenyl)-1,2,4-triazol-3-yl]-N1-(1-ethyl-3-piperidyl)-5-methyl-benzene-1,3-diamine]
fold induction at 1 µM [1]: 1 to 10
fold induction at 10 µM [1]: ≤ 1

Cc1cc(Nc2ncn(-c3cc(F)cc(F)c3)n2)cc(N2CCN(C(C)(C)C(=O)O)CC2)c1 [Compound 509, 2-[4-[3-[[1-(3,5-difluorophenyl)-1,2,4-triazol-3-yl]amino]-5-methyl-phenyl]piperazin-1-yl]-2-methyl-propanoic acid]
fold induction at 1 µM [4]: 100 to 1000
fold induction at 10 µM [4]: 100 to 1000

Cc1cc(Nc2ncn(-c3cc(F)cc(F)c3)n2)cc(C2CCCN(C)C2)c1 (stereo not drawn) [Compound 328, 1-(3,5-difluorophenyl)-N-[3-methyl-5-(1-methyl-3-piperidyl)phenyl]-1,2,4-triazol-3-amine]
fold induction at 1 µM [2]: 100 to 1000
fold induction at 10 µM [3]: 100 to 1000

[2H]C1([2H])N(C)C([2H])([2H])C([2H])([2H])N(c2cc(C)cc(Nc3ncn(-c4ccccc4)n3)c2)C1([2H])[2H] [Compound 1111, N-[3-methyl-5-(2,2,3,3,5,5,6,6-octadeuterio-4-methyl-piperazin-1-yl)phenyl]-1-phenyl-1,2,4-triazol-3-amine]
fold induction at 1 µM [1]: 100 to 1000
fold induction at 10 µM [1]: ≤ 1

CCC(O)CN1CCN(c2cc(C)cc(Nc3ncn(-c4cc(F)cc(F)c4)n3)c2)CC1 (stereo not drawn) [Compound 957, 1-[4-[3-[[1-(3,5-difluorophenyl)-1,2,4-triazol-3-yl]amino]-5-methyl-phenyl]piperazin-1-yl]butan-2-ol]
fold induction at 1 µM [1]: 10 to 100
fold induction at 10 µM [1]: ≤ 1
